| Compound | melting point [°C] |
| --- | --- |
| COc1cc(CCC(=O)O)cc(I)c1O | 96 to 97 |
| CCCC(CCC)n1nnc2c(Nc3c(Br)cc(OC)cc3OC)nc(C)cc21 | 140 to 141 |
| CC(C)Oc1ccc(Oc2ccc3c(c2)c(C(=O)O)c(CC(=O)O)n3-c2cccc(Cl)c2)cc1 | 188 to 190 |
| O=C(CC(c1ccccc1)c1ccccc1)N1CCN(CCc2cc3ccccc3o2)CC1 | 123 to 124 |
| CCCCCCCCCCCCCCC(CCC(=O)OCc1ccccc1)C(=O)O (stereo not given) | 62 to 63 |
| N#Cc1cc(C#N)cc(Oc2cccc(Oc3cc(C#N)cc(C#N)c3)c2)c1 | 212 to 213 |
| CC(C)CN1CCN(c2cc3ccccc3c(=O)[nH]2)CC1CO (stereo not given) | 130 to 132 |
| C(=C\C1CCCCC1)/c1nc(COc2ccc(CCCn3ccnc3)cc2)co1 | 62 to 63 |
| ClC1Cc2cc(Br)ccc2Sc2ccccc21 (stereo not given) | 122 to 124 |
| COC1=C(OC)C(=O)c2c(Cl)cccc2C1=O | 120 to 121 |
| CC(C)=CCc1cc(C2CCc3ccc(O)cc3O2)ccc1O (stereo not given) | 116 to 117 |
| Cc1c(NC(=O)c2ccc(-c3ccc4c(c3)CCCCO4)cc2)ccc2cc(CN3CCCC3)cnc12 | 162 to 163 |
| CCN(C)C(=O)NC(=N)SC | 74 to 76 |
| CC1Nc2ccccc2N(Cc2ccccc2)C(=O)C1C/C=C/c1ccccc1 (stereo not given) | 119 to 120 |
| CN(C)C(=O)CCc1ccc2c(c1)nc(N)c1nc(CO)n(CC(C)(C)O)c12 | 228 to 230 |
| C/C=C/C(=O)NC(=O)OC(C)(C)C | 138 to 139 |
| CCCCN(CCCC)CCCOc1ccc(C(=O)c2c(C)oc3ccc([N+](=O)[O-])cc23)cc1 | 63 |
| O=C(O)/C(=C/C1CCCCC1)c1ccc(F)c(F)c1 | 119 to 121 |

| Compound | melting point [°C] |
| --- | --- |
| O=C(O)c1cn(-c2ccc(F)cc2F)c2nc(S(=O)(=O)c3ccccc3)c(F)cc2c1=O | 252 to 258 |
| CCOC(=O)c1c(C)nn(C)c1S(=O)(=O)N=c1nc2nc(C)cc(C)n2s1 | 167 to 168 |
| O=[N+]([O-])c1ccc(S(=O)(=O)n2c3cc(O)c(O)cc3c3ccc(O)c(O)c32)cc1 | 233 to 234 |
| CCOC(=S)N[C@@H](C)C(=O)O | 74 to 78 |
| N#Cc1ccc(Br)cc1Br | 76 to 78 |
| Cc1csc2c1-n1cccc1/C2=N/OCCBr | 92 |
| CS(=O)(=O)c1ccc(-n2nc(C(F)(F)F)cc2-c2ccc(-c3cnco3)cc2)cc1 | 178 to 180 |
| CC(C)Oc1cc(Oc2ccc(C(F)(F)F)cn2)ccc1CCCOc1cc(CCC(=O)O)n(-c2ccccc2)n1 | 130 |
| COC(=O)Cc1c(C(=O)OC)ccn1CCBr | 129 to 130 |
| CN1CCC(C(=O)O)(S(=O)(=O)c2ccc(Oc3ccc(Cl)cc3)cc2)CC1 | 185 |
| O=C(CCCCc1ncc[nH]1)NNC(=O)N1Cc2ccccc2Oc2ccc(Cl)cc21 | 164 to 166 |
| O=C(Cc1ccccc1C(=O)O)Nc1cccc(/C=C/c2nc(C3CCCCC3)cs2)c1 | 210 to 211 |
| CN(C1CCN(CCC(F)(F)F)CC1)S(=O)(=O)c1ccc(Nc2nccc(Nc3ccc(F)cc3)n2)cc1 | 195 to 196 |
| C#CCN(c1cc(-n2nc3ccc(Cl)cn3c2=O)c(F)cc1C#N)S(=O)(=O)CC | 176 to 178 |
| CC(=O)OCc1cccc(C(C)C)c1NC(=O)CC1c2ccccc2Oc2ccccc21 | 155 to 156 |
| CC[C@H](COC)n1cc(Cl)nc(N2CCc3cc(Cl)cc(Cl)c32)c1=O | 143 to 146 |
| Cc1ccccc1N(CCC(=O)O)C(=O)Cl | 112 |

Now from value to molecule:

| melting point [°C] | Compound |
| --- | --- |
| 137 to 139 | COC(=O)c1cc(F)c(Cl)nc1Nc1ccc(F)cc1F |
| 102 to 104 | COc1cc(Oc2cccc(C(F)(F)F)c2)nc(C(=O)NC(OC)C(F)(F)F)c1 (stereo not given) |
| 92 to 93.5 | CC(C(=O)N(C)C)n1cc(Cl)c(-c2ccc(Cl)cc2)n1 (stereo not given) |
| 66 to 67 | Cc1cccc(C(=O)Cc2ccnc(F)c2)c1 |
| 108 to 110 | CC(C)(CCl)C(OC(=O)C(Cl)Cl)C(Oc1ccc(Cl)cc1)n1ccnc1 (stereo not given) |
| 320 to 322 | COc1ccc(NC(=O)NCc2cccc3c2CN(C2CCC(=O)NC2=O)C3=O)cc1 (stereo not given) |
| 251 to 252 | O=C(CC(=O)c1ccccc1O)c1cc(O)c(O)c([N+](=O)[O-])c1 |
| 111 to 112 | CC(=O)N(N=Nc1cc(C(F)(F)F)ccc1C#N)c1cc(C(F)(F)F)ccc1C#N |
| 131 to 132 | Cc1nccn1-c1nc(-c2ccc(Cl)cc2)c(CCCC(=O)NCCCl)o1 |
| 71 to 71.5 | CCOC(=O)C=Cc1cccc(C(=O)c2ccc(OC)cc2)c1 |
| 202 to 204 | CSC(C)(C(=O)O)c1ccc(N2C(=O)c3ccccc3C2=O)cc1 (stereo not given) |
| 122 to 124 | CSc1nccc(C)c1NC(=O)CCCCCSc1nc2ccccc2o1 |
| 86 to 87 | O=C(O)[C@H](Cc1ccc(C(F)(F)F)o1)[C@@H](O)c1ccc(F)cc1 (racemic) |
| 135 to 137 | O=C1Cc2c(Cl)cccc2Sc2ccc(F)cc21 |
| > 260 | COc1ccc2c(n1)C(=O)c1nccc3c1c-2nc1ccccc13 |

Reference: a melting point compilation (Tetko et al.; mined from patent text by program, amines drawn as free bases though some values may be those of a salt)
